Results reported in paper PMC4257560, “Synthesis and Functional Characterization of Substituted Isoquinolinones as MT2-Selective Melatoninergic Ligands” (PLoS ONE, 2014).
Several values for one entry are separate records, joined by “and”; a condition that tells them apart may be missing. Equal entries are not always repeated. Entries after “also recorded” stand apart in the source; their conditions may differ. Where two headings read alike, the source gives them in different places.

Columns and labels:
MT2 [1] = biological target: T1, MT2 (Homo sapiens, UniProt P49286); test: biochemical; settings: for Ki: MT2 Ki, calculated from mean pIC50 (Cheng-Prusoff), 1 nM [3H]melatonin, intact CHO cells; for Emax: read-out: MT2 %Resp±SEM (percentage of melatonin-mediated displacement of radioligand binding)
T1 sequence (P49286 1-362): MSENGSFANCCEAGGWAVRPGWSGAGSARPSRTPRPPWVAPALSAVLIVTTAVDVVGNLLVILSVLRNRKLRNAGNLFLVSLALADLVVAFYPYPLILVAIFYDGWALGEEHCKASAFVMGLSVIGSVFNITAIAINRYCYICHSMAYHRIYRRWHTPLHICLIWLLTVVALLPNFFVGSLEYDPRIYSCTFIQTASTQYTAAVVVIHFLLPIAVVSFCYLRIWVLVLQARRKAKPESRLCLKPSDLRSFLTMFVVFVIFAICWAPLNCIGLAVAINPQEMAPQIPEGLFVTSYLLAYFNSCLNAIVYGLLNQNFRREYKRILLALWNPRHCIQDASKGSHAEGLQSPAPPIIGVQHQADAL
Method: (§5) Competitive receptor binding characteristics of melatonin and the 15 tested compounds towards human MT1 and MT2 stably expressed in Chinese hamster ovary (CHO) cells were determined using intact cell preparation pre-incubated with 1 nM [^3H]melatonin.
(§6) Individual melatonin receptor subtype (either MT1 or MT2) was stably co-expressed with a G protein chimera 16z25 in Chinese hamster ovary (CHO) cells, hereafter denoted as CHO-hMT1 and CHO-hMT2, respectively. […] Single cell-derived colonies of the stable lines with sufficiently high receptor density and robust responses in the fluorometric assay (as described below) were isolated from the pool of transfected cell. Usage of these clonal lines was limited to 15 passages to prevent degradation of signal detection.
(§7) Competitive binding assays were performed as described [26]. Cells were suspended in binding buffer (50 mM Tris, 2 mM MgCl2, 1 mM EGTA, pH 7.4) in the density of 1.5×10^5 cell/ml. 1 nM [^3H]melatonin and increasing concentrations of a tested compound was included. Cells were incubated at 4°C for 60 min with intermittent agitation and the reaction was stopped by rapid filtration through GF/C filters pre-soaked in 10 mM Tris, pH 7.4 and washed with 1 ml of prechilled binding buffer. Retained radioactivity was measured with Wallac 1450 Microbeta Jet scintillation counter. Competition curves were drawn as one-site competition nonlinear regression model using GraphPad Prism 3.03 to the data which were means ± SEM of 3–4 independent experiments performed in duplicates. In every assay, melatonin was included as standard reference with highly reproducible Ki values, which were calculated using the Cheng-Prusoff equation.

MT1 [2] = biological target: T2, MT1 (Homo sapiens, UniProt P48039); settings: for MT1 pIC50±SEM: 4°C 60 min, mean ± SEM of 3–5 trials, NSB = no specific binding for up to 30 µM
T2 sequence (P48039 whole entry): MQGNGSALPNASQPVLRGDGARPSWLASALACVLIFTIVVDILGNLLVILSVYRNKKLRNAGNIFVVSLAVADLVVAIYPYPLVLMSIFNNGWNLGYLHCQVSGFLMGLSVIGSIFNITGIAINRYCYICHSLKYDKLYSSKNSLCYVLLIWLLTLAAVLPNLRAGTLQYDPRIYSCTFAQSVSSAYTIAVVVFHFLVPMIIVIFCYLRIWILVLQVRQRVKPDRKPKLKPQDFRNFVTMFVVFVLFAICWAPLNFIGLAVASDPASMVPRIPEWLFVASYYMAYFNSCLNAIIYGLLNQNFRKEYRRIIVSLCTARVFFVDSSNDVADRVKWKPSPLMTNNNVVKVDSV
Method: as §5, §6, §7

MT2 [3] = biological target: T1, MT2; test: Intracellular Ca2+ mobilization (FLIPR) in MT2-CHO cells co-expressing 16z25; assay type: cell-based; design: expressed in transfected cells; settings: for Emax: percentage of melatonin (MT)-mediated stimulation of Ca2+ signal, read-out: MT2 %Resp ±SEM, Ca2+ signal
Method: (§1) Tested compounds in different concentrations were diluted in assay buffer in 5× of the final desired concentrations in a V-bottomed microplate, and both the cell and compound plates were put into the fluorometric imaging plate reader FLIPR^TETRA (Molecular Devices, Sunnyvale, CA). […] The peak of the time course of fluorescence changes was expressed in relative fluorescence units (RFU). Dose response curves were constructed by non-linear regression using GraphPad Prism 3.

MT2 [4] = biological target: T1, MT2; test: Inhibition of forskolin-stimulated cAMP accumulation in MT2-CHO cells; assay type: cell-based; design: expressed in transfected cells; settings: for IC50: MT2-CHO cells, 50 µM forskolin, calculated from mean pIC50, read-out: MT2 IC50, inhibition of cAMP production; for MT2 %Inhmax ±SEM: maximal percentage inhibition of the forskolin-elevated cAMP level, MT2-CHO
Method: (§2) Both MT1 and MT2 are classified as Gi-coupled receptors with their activation leading to inhibition of intracellular cAMP production. The ability of the tested compounds to activate the endogenously expressed Gi-mediated inhibition of cAMP production was therefore examined.
(§3) All the responses were expressed as the percentage of that induced by forskolin alone (as 100%).
(§4) 2×10^5 cells were seeded in each well of 12-well plates and grown for overnight. Each well was labeled with 1 ml of [^3H]adenine (1 µCi/ml) in F-12K medium containing 1% FBS (vol/vol) for overnight. The labeling media were then replaced by 1 ml of 20 mM HEPES-buffered F-12K containing 1 mM isobutylmethylxanthine (IBMX) and the tested compounds at desired concentrations, and incubated at 37°C for 30 min. The reaction was stopped by aspiration and adding 1 ml prechilled 5% trichloroacetic acid (w/v) with 1 mM ATP, and stored at 4°C for 30 min. [^3H]cAMP was extracted from the pool of labeled adenosine nucleotides by sequential ion-exchange chromatography as previously described. The radioactivity of labeled cAMP and total labeled nucleotide fractions separated by chromatography were estimated by scintillation counting. Inhibition curves were constructed by non-linear regression using GraphPad Prism 3.

MT1 [5] = biological target: T2, MT1; test: Inhibition of forskolin-stimulated cAMP accumulation in MT1-CHO cells; assay type: cell-based; design: expressed in transfected cells; settings: for inhibition of cAMP levels in MT1-CHO cells (in words): forskolin-stimulated; for MT1 %Inhmax ±SEM: maximal percentage inhibition of the forskolin-elevated cAMP level, MT1-CHO; for MT1 IC50, inhibition of cAMP production: MT1-CHO cells, 50 µM forskolin, calculated from mean pIC50, NSR = no significant response for up to 10 µM
Method: as §2, §3, §4

MT2 [6] = biological target: T1, MT2; settings: for displacement of pre-incubated [3H]melatonin at MT2 (in words): competitive binding, intact CHO cells
Method: as §5, §6, §7

MT1 [7] = biological target: T2, MT1; test: Intracellular Ca2+ mobilization (FLIPR) in MT1-CHO cells co-expressing 16z25; assay type: cell-based; design: expressed in transfected cells; settings: for Ca2+ mobilization activity at MT1 (in words): MT1-CHO cells, maximal concentration tested 10 µM
Method: as §1

MT1 [8] = biological target: T2, MT1; test: biochemical; settings: for Emax: read-out: MT1 %Resp±SEM (percentage of melatonin-mediated displacement of radioligand binding)
Method: as §5, §6, §7

[9] = 1 nM [3H]melatonin, intact CHO cells
[10] = MT2-CHO cells, FLIPR, calculated from mean pEC50, NSR = no significant response for up to 30 µM, read-out: MT2 EC50, Ca2+ mobilization
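Throughout, for MT1 %Resp±SEM (percentage of melatonin-mediated displacement of radioligand binding): competitive radioligand displacement on intact CHO cells stably co-expressing human MT1 together with the G protein chimera 16z25, using rising concentrations of each compound.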
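Throughout, for MT1 pIC50±SEM: competitive radioligand displacement on intact CHO cells stably co-expressing human MT1 together with the G protein chimera 16z25, using rising concentrations of each compound.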
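Throughout, for Selectivity, ratio Ki(MT1)/Ki(MT2): competition binding on intact CHO cells stably co-expressing human MT2 with G protein chimera 16z25, displacing [3H]melatonin at 4°C over 60 min, melatonin run as reference.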
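Throughout, for displacement of pre-incubated [3H]melatonin at MT2 (in words): competition binding on intact CHO cells stably co-expressing human MT2 with G protein chimera 16z25, displacing [3H]melatonin at 4°C over 60 min, melatonin run as reference.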
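Throughout, for selectivity toward MT2 over MT1: competition binding on intact CHO cells stably co-expressing human MT2 with G protein chimera 16z25, displacing [3H]melatonin at 4°C over 60 min, melatonin run as reference.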

Row | Compound | IC50 (MT2 [1]) [nM] | Ki (MT2 [1]) | Emax (MT2 [1]) [%] | MT1 pIC50±SEM (MT1 [2]; [9]) | EC50 (MT2 [3]; [10]) [nM] | Emax (MT2 [3]; MT2) [%] | melting point [°C] | IC50 (MT2 [4]) [nM] | MT2 %Inhmax ±SEM (MT2 [4]) [%] | MT1 IC50, inhibition of cAMP production (MT1 [5]) | Ca2+ mobilization activity at MT1 (in words) (MT1 [7]) | Selectivity, ratio Ki(MT1)/Ki(MT2) (MT2 [6]) | IC50 (MT1 [8]) [nM] | Emax (MT1 [8]) [%] | other results
1 | COc1cc2c(=O)n(C)ccc2cc1OCc1ccccc1 [7a, 6-Benzyloxy-7-methoxy-2-methylisoquinolin-1(2H)-one] | 2820 | 852 nM | 78 ± 7 | NSB ^c | 163 | 84 ± 20 | 102 to 104 |  |  |  |  |  |  |  | concentration triggering Ca2+ signals exclusively in MT2-CHO cells (MT2 [3]; from concentration response curves, Figure 4): around 1 µM
2 | COc1ccccc1COc1cc2ccn(C)c(=O)c2cc1OC [7d, 7-Methoxy-6-(2-methoxy-benzyloxy)-2-methylisoquinolin-1(2H)-one] | 2240 | 674 nM | 79 ± 5 | NSB | 25.7 | 85 ± 22 | 150 to 152 | 247 | 59±5 |  |  |  |  |  | inhibition of cAMP levels in MT1-CHO cells (in words) (MT1 [5]): observable inhibition; MT1 %Inhmax ±SEM (MT1 [5]): 33±13%; IC50 (MT1 [5]; read-out: MT1 IC50, inhibition of cAMP production): 396 nM; reduction of ability to trigger Ca2+ signal on moving methoxy from meta to ortho (vs 7b) (MT2 [3]; MT2-CHO): 2 orders of magnitude
3 | COc1cc2c(=O)n(C)ccc2cc1OCc1cc(C)cc(C)c1 [7g, 6-(3,5-Dimethyl-benzyloxy)-7-methoxy-2-methylisoquinolin-1(2H)-one] | 3470 | 1050 nM | 86 ± 2 | NSB | 110 | 83 ± 6 |  |  |  |  |  |  |  |  | 
4 | COc1cccc(COc2c(OC)ccc3c(=O)n(C)ccc23)c1 [15b, 6-Methoxy-5-(3-methoxy-benzyloxy)-2-methyl-2H-isoquinolin-1-one] | 5.5 | 1.7 nM and 1.66 nM | 85 ± 8 |  |  | 89 ± 20 |  | 0.81 | 61±4 | NSR | could not produce any activity; also recorded: totally inactive | 1800 | 13200 | 71 ± 13 | inhibition of cAMP levels in MT1-CHO cells (in words) (MT1 [5]): completely inactive; Ki (MT1 [2]; read-out: MT1 Ki, calculated from mean pIC50 (Cheng-Prusoff), 1 nM [3H]melatonin, intact CHO cells): 2980 nM; EC50 (MT2 [3]; MT2-CHO cells, FLIPR, mean ± SEM of 3–5 trials, read-out: MT2 pEC50 ±SEM, Ca2+ mobilization (converted)): 0.145 nM
5 | COc1ccc2[nH]cc(CCNC(C)=O)c2c1 [MT, N-acetyl-5-methoxytryptamine, reference compound] |  |  |  |  |  |  |  |  |  |  |  |  |  |  | MT1 %Inhmax ±SEM (MT1 [5]): 59±2%; MT1 %Inhmax ±SEM (MT1 [5]; listed as Melatonin): 60–70%; MT1 %Resp ±SEM, Ca2+ signal (MT1 [7]): 100±26%; MT1 %Resp±SEM (percentage of melatonin-mediated displacement of radioligand binding) (MT1 [2]; relative to melatonin (MT)-mediated displacement): 95±2%
6 | COc1cc2ccn(C)c(=O)c2cc1O [compound 12, 7-Hydroxy-6-methoxy-2-methylisoquinolin-1(2H)-one] |  |  |  |  |  |  |  |  |  |  |  |  |  |  | Emax at 10 µM (MT1 [7]; at 10 µM, partial activation, data not shown, read-out: maximal response, Ca2+ mobilization, MT1): 36%; Emax at 10 µM (MT2 [3]; MT2, at 10 µM, partial activation, data not shown, read-out: maximal response, Ca2+ mobilization, MT2): 53%

The next lines start with results.

Row | IC50 (MT2 [1]) [nM] | Ki (MT2 [1]) | Emax (MT2 [1]) [%] | MT1 pIC50±SEM (MT1 [2]; [9]) | EC50 (MT2 [3]; [10]) [nM] | Emax (MT2 [3]; MT2) [%] | melting point [°C] | IC50 (MT2 [4]) [nM] | MT2 %Inhmax ±SEM (MT2 [4]) [%] | MT1 IC50, inhibition of cAMP production (MT1 [5]) | Ca2+ mobilization activity at MT1 (in words) (MT1 [7]) | Selectivity, ratio Ki(MT1)/Ki(MT2) (MT2 [6]) | IC50 (MT1 [8]) [nM] | Emax (MT1 [8]) [%] | Compound | other results
7 | 1000 | 302 nM | 92 ± 3 | NSB | 48.9 | 96 ± 16 |  | 69.4 | 71±6 | NSR | could not produce any activity |  |  |  | COc1cccc(COc2cc3c(=O)n(C)ccc3cc2OC)c1 [14b, 6-Methoxy-7-(3-methoxy-benzyloxy)-2-methylisoquinolin-1(2H)-one] | displacement of pre-incubated [3H]melatonin at MT2 (in words) (MT2 [6]): completely displaced; fold less potent than 7b (EC50, Ca2+ signal, MT2) (MT2 [3]; relative to 7b, MT2-CHO): > 160 fold
8 | 18200 | 5490 nM | 94 ± 11 | NSB | 228 | 71 ± 17 |  | 326 | 58±3 | NSR | could not produce any activity |  |  |  | COc1cc(COc2cc3c(=O)n(C)ccc3cc2OC)cc(OC)c1 [14c, 7-(3,5-Dimethoxy-benzyloxy)-6-methoxy-2-methylisoquinolin-1(2H)-one] | Ca2+ mobilization activity at MT2 (in words) (MT2 [3]; MT2-CHO cells, FLIPR): partial efficacy; fold less potent than 7c (Ca2+ signal, MT2) (MT2 [3]; relative to 7c, MT2-CHO): 11 fold
9 | 1200 | 362 nM | 85 ± 8 |  | 215 | 70 ± 9 | 125 to 127 |  |  |  |  | 5.72 | 9120 | 84 ± 10 | COc1ccc2c(=O)n(C)ccc2c1OCc1ccccc1 [15a, 5-Benzyloxyl-6-methoxy-2-methylisoquinolin-1(2H)-one] | Ki (MT1 [8]): 2070 nM
10 | 141 | 42 nM | 94 ± 13 |  | 4.08 | 85 ± 19 | 85 to 86 | 40.6 | 64±3 | NSR | could not produce any activity | 50.7 | 9330 | 63 ± 4 | COc1cc(COc2c(OC)ccc3c(=O)n(C)ccc23)cc(OC)c1 [15c, 5-(3,5-Dimethoxy-benzyloxy)-6-methoxy-2-methylisoquinolin-1(2H)-one] | selectivity toward MT2 over MT1 (MT2 [6]; binding, Ki ratio): 51 fold; displacement of pre-incubated [3H]melatonin at MT2 (in words) (MT2 [6]): almost complete displacement; Ki (MT1 [8]): 2130 nM; fold more potent than 7c (Ca2+ signal, MT2) (MT2 [3]; relative to 7c, MT2-CHO): 5 fold
11 | 9550 | 2890 nM | 74 ± 11 |  | 128 | 40 ± 17 |  |  |  |  |  | 0.27 | 3390 | 34 ± 5 | COc1ccc2c(=O)n(C)ccc2c1OCc1ccc(C)cc1 [15d, 6-Methoxy-2-methyl-5-(4-methyl-benzyloxy)-isoquinolin-1(2H)-one] | Ki (MT1 [8]): 770 nM
